{"source": "patent US20030114357A1", "about": "“Methods related to the A-C repeat Z-sequence upstream from the aldose reductase gene” (priority 2001, published 2003)", "key": {"[1]": {"test_system": "subjects with painful, symmetrical polyneuropathy", "assay": "Peroneal motor nerve conduction velocity (NCV), double-blind study placebo vs zopolrestat, 12 week change", "format": "in vivo, human", "details": "placebo vs combined treatment groups (250 and 500 mg zopolrestat dose)", "source_text": "(§1) Diabetic neuropathy, a complication arising from diabetes mellitus, is an example of conditions that are mediated by having at least one allele of the (A-C)n repeat Z sequence associated with the aldose reductase gene wherein the value of n is less than 24. […] Such evaluation may be performed by measuring changes in nerve conduction velocity (NCV) in the following nerves: median motor, ulnar sensory, median sensory (both distal and proximal segments), peroneal motor and sural sensory. Testing is performed prior to the initiation of administration of the Agent and one or more times thereafter. An exemplary schedule for neuroelectrophysiology evaluation is prior to initiation of administration of the Agent and at weeks 12, 24 and 52 following initiation of administration.\n(§2) Tables 1 and 2 illustrate the effect of administration of the aldose reductase inhibitor, zopolrestat, on NCV of subjects having one and two alleles of the Z sequence having less than 24 A-C repeats. […] The NCV results from Tables 1 and 2 where obtained according to the protocol described in Example 2 of the General Experimental Procedures.\n(§3) The terms “1 short” and “2 short” as used in Tables 1 and 2 refers to the number of alleles found in each subject where n has a value of less than 24 for the (A-C)n repeat Z sequence. “1 short” refers to subjects having only one allele wherein n is less than 24. “2 short” refers to subjects having two alleles wherein n is less than 24. […]\nNerve Conduction Velocity (“NCV”) is defined as the maximal speed in which Compound Action Potentials are propagated within a nerve, generally reflecting the activity in the fastest and largest neurons and calculated in meters per second by dividing distance in mm by Latency. […]\n3. […] Skin temperature is measured prior to and at the conclusion of testing at sites midway between the stimulating and recording electrodes for each limb. Temperature is monitored and adjusted during testing using either a feedback controlled infrared radiant heater, a water bath or a temperature controlled blanket wrap. […]"}, "[2]": {"test_system": "subjects with painful, symmetrical polyneuropathy", "assay": "Composite neuroelectrophysiology (NE) parameter (modified O'Brien score), double-blind study placebo vs zopolrestat, 12 week change", "format": "in vivo, human", "details": "placebo vs combined treatment groups (250 and 500 mg zopolrestat dose)", "source_text": "as §1, §2\nComposite NE parameter is calculated according to the technique described in O'Brien, P. C., Biometrics, 40, 1079-1087 (1984). For ease of interpretation, the standard composite NE parameter of O'Brien is slightly modified for Tables 1 and 2. The standard O'Brien method would give values of 0 to 1. For the modified O'Brien score, the standard O'Brien value is reduced by 0.5 to give a value in the range of −0.5 to 0.5 with an expected value of 0. Values lower than 0 correspond to an overall composite NE decrease relative to the entire patient population, while values greater than 0 correspond to a relative increase.\nas §3"}}, "data": [{"smiles": "O=C(O)Cc1nn(Cc2nc3cc(C(F)(F)F)ccc3s2)c(=O)c2ccccc12", "note": "[zopolrestat]", "values": [{"measurement": "Peroneal Motor 12 Week Change Mean Treatment Effect", "setting": "[1]; Group 1 Short (subjects with only one Z-sequence allele n<24)", "value": 0.22}, {"measurement": "Peroneal Motor 12 Week Change Mean Treatment Effect", "setting": "[1]; Group 2 Short (subjects with two Z-sequence alleles n<24)", "value": 2.35}, {"measurement": "Peroneal Motor 12 Week Change Mean Treatment Effect", "setting": "[1]; Group Combined (1 short + 2 short Z-sequence alleles, n<24), NCV, calculated in meters per second", "value": 1.63}, {"measurement": "Composite NE Parameter (modified) 12 Week Change Mean Treatment Effect", "setting": "[2]; Group 1 Short (only one Z-sequence allele n<24)", "value": 0.04}, {"measurement": "Composite NE Parameter (modified) 12 Week Change Mean Treatment Effect", "setting": "[2]; Group 2 Short (two Z-sequence alleles n<24)", "value": 0.09}, {"measurement": "Composite NE Parameter (modified) 12 Week Change Mean Treatment Effect", "setting": "[2]; Group Combined, range -0.5 to 0.5", "value": 0.07}]}]}
